Source: ChEMBL document CHEMBL5500324, “The potential of marine-derived piperazine alkaloids: Sources, structures and bioactivities” (Eur J Med Chem, 2024)
Values after ≈ are worked out from the molar mass of the structure shown.

Experiments:
MCF7 = test: Cytotoxicity against human MCF7 cells assessed as reduction in cell growth incubated for 48 hrs by SRB assay; type: functional, cell-based; details: MCF7, 48 h
SF-268 = test: Cytotoxicity against human SF-268 cells assessed as reduction in cell growth incubated for 48 hrs by SRB assay; type: functional, cell-based; details: SF-268, 48 h
HepG2 = test: Cytotoxicity against human HepG2 cells assessed as reduction in cell growth incubated for 48 hrs by SRB assay; type: functional, cell-based; details: HepG2, 48 h
NCI-H460 = test: Cytotoxicity against human NCI-H460 cells assessed as reduction in cell growth incubated for 48 hrs by SRB assay; type: functional, cell-based; details: NCI-H460, 48 h
P388 [1] = test: Cytotoxicity against mouse P388 cells assessed as reduction in cell viability; type: functional; details: read-out: ED50 (the source's name)
P388 [2] = test: Cytotoxicity against mouse P388 cells; type: functional; details: read-out: ED50 (the source's name)
A549 [3] = test: Cytotoxicity against human A549 cells assessed as reduction in cell viability measured for 48 hrs by MTT assay; type: functional, cell-based; details: A549, 48 h
HL-60 = test: Cytotoxicity against human HL-60 cells assessed as reduction in cell viability by MTT assay; type: functional, cell-based
MOLT-4 = test: Cytotoxicity against human MOLT-4 cells assessed as reduction in cell viability by MTT assay; type: functional, cell-based
Bel-7402 = test: Cytotoxicity against human Bel-7402 cells assessed as reduction in cell viability measured for 48 hrs by MTT assay; type: functional, cell-based; details: Bel-7402, 48 h
A549 [4] = test: Cytotoxicity against human A549 cells assessed as inhibition of cell growth; type: functional, cell-based
P388 [5] = test: Cytotoxicity against mouse P388 cells assessed as inhibition of cell growth; type: functional, cell-based
HT-29 [6] = test: Cytotoxicity against human HT-29 cells assessed as inhibition of cell growth; type: functional, cell-based
SK-MEL-28 = test: Cytotoxicity against human SK-MEL-28 cells assessed as inhibition of cell growth; type: functional, cell-based
HT-29 [7] = test: Antiproliferative activity against human HT-29 cells assessed as reduction in cell viability incubated for 72 hrs by SRB assay; type: functional, cell-based; details: HT-29, 72 h
MDA-MB-231 = test: Antiproliferative activity against human MDA-MB-231 cells assessed as reduction in cell viability incubated for 72 hrs by SRB assay; type: functional, cell-based; details: MDA-MB-231, 72 h
A549 [8] = test: Antiproliferative activity against human A549 cells assessed as reduction in cell viability incubated for 72 hrs by SRB assay; type: functional, cell-based; details: A549, 72 h
U-937 = test: Cytotoxicity against human U-937 cells assessed as reduction in cell growth incubated for 48 hrs by CCK-8 assay; type: functional, cell-based; details: U-937, 48 h

CS[C@]1(CO)C(=O)N2[C@H]3C(=CC=C[C@@H]3OC(C)=O)C[C@@]2(SC)C(=O)N1C
IC50 (MCF7): 3100 nM | IC50 (SF-268): 34 µM | IC50 (HepG2): 7 µM | IC50 (NCI-H460): 3400 nM

CN1C(=O)[C@]23Cc4ccccc4N2C(=O)[C@@]1(CO)SS3
IC50 (MCF7): 680 nM | IC50 (SF-268): 1.35 µM | IC50 (HepG2): 1.52 µM | IC50 (NCI-H460): 1270 nM

CC(C)[C@]12SS[C@]3(C(=O)N1C)[C@@H](O)C1(C45c6ccccc6N[C@H]4N4C(=O)[C@@]6(CO)SS[C@]4(C(=O)N6C)[C@H]5O)c4ccccc4N[C@@H]1N3C2=O (stereo partly drawn)
EC50 (P388 [1]): 1.75 ng/mL (≈ 2.36 nM)

CC(C)[C@]12SSSS[C@]3(C(=O)N1C)[C@@H](O)C1(C45c6ccccc6N[C@H]4N4C(=O)[C@@]6(C(C)C)SS[C@]4(C(=O)N6C)[C@H]5O)c4ccccc4N[C@@H]1N3C2=O (stereo partly drawn)
EC50 (P388 [2]): 0.0021 µg/mL (≈ 2.57 nM)

COc1ccc2c(c1)N(CC=C(C)C)C(=O)[C@]21[C@H](C=C(C)C)N2C(=O)[C@@H]3CCCN3C(=O)[C@]2(O)[C@H]1O
IC50 (A549 [3]): 35.9 µM | IC50 (HL-60): 43500 nM | IC50 (MOLT-4): 25.7 µM | IC50 (Bel-7402): 68.8 µM

COc1c(C)cc2c(c1O)[C@@H]1N[C@H](C2)[C@H](O)N2[C@H]1[C@@H]1SC[C@H](N)C(=O)OC[C@H]2c2c(O)c(OC)c(C)c(OC(C)=O)c21
IC50 (A549 [4]): 10 ng/mL (≈ 16.6 nM) | IC50 (P388 [5]): 10 µM | IC50 (HT-29 [6]): 10 ng/mL (≈ 16.6 nM) | IC50 (SK-MEL-28): 5 ng/mL (≈ 8.31 nM)

CN1C[C@@H](c2c[nH]c3cc(Br)ccc23)NC[C@@H]1c1c[nH]c2cc(Br)ccc12
IC50 (HT-29 [7]): 3.3 µM | IC50 (MDA-MB-231): 3.8 µM | IC50 (A549 [8]): 3.1 µM

CS[C@]1(C(C)C)C(=O)N2C(=CC3(C45c6ccccc6N[C@H]4N4C(=O)[C@H](CO)N(C)C(=O)[C@@]4(O)[C@H]5O)c4ccccc4N[C@H]23)C(=O)N1C (stereo partly drawn)
EC50 (P388 [2]): 15.2 µg/mL (≈ 23000 nM)

CO[C@@]12C(=O)N(C)[C@@H](CO)C(=O)N1[C@@H]1Nc3ccccc3C1(C13c4ccccc4N[C@@H]1N1C(=O)[C@@]4(C(C)C)SS[C@]1(C(=O)N4C)[C@@H]3O)[C@H]2O (stereo partly drawn)
EC50 (P388 [2]): 0.18 µg/mL (≈ 254 nM)

CSS[C@@]1(C(C)C)C(=O)N2C(=CC3(C45c6ccccc6N[C@H]4N4C(=O)[C@H](CO)N(C)C(=O)[C@@]4(O)[C@H]5O)c4ccccc4N[C@H]23)C(=O)N1C (stereo partly drawn)
EC50 (P388 [2]): 1.1 µg/mL (≈ 1590 nM)

COc1ccc2c3c(n(CC=C(C)C)c2c1)[C@H](C=C(C)C)N1C(=O)[C@@H]2CCCN2C(=O)[C@]1(O)C3=O
IC50 (A549 [3]): 16.9 µM | IC50 (HL-60): 1900 nM | IC50 (MOLT-4): 25.7 µM | IC50 (Bel-7402): 25.6 µM

COc1ccc2c(c1)N(/C=C/C(C)(C)OO)C(=O)[C@]21[C@H](C=C(C)C)N2C(=O)[C@@H]3CCCN3C(=O)[C@]2(O)[C@H]1O
IC50 (A549 [3]): 3.1 µM | IC50 (HL-60): 2300 nM | IC50 (MOLT-4): 3.1 µM | IC50 (Bel-7402): 98.4 µM

COc1ccc2c3c([nH]c2c1)[C@H](C=C(C)C)N1C(=O)[C@@H]2CCCN2C(=O)[C@]1(O)C3
IC50 (U-937): 18.2 µM

CC(C)[C@]12SS[C@]3(C(=O)N1C)[C@@H](O)C1(C45c6ccccc6N[C@H]4N4C(=O)[C@@]6(C(C)C)SS[C@]4(C(=O)N6C)[C@H]5O)c4ccccc4N[C@@H]1N3C2=O (stereo partly drawn)
EC50 (P388 [2]): 0.0038 µg/mL (≈ 5.05 nM)

COc1ccc2c3c([nH]c2c1)[C@H](C=C(C)C)N1C(=O)[C@@H]2CCCN2C(=O)[C@@]1(O)[C@H]3O
IC50 (U-937): 92.4 µM

COc1cc2c(cc1O)CCN[C@@]21CS[C@@H]2c3c(OC(C)=O)c(C)c4c(c3[C@H](COC1=O)N1[C@@H]2[C@@H]2N[C@@H](Cc3cc(C)c(OC)c(O)c32)[C@@H]1O)OCO4
IC50 (A549 [4]): 0.2 ng/mL (≈ 0.267 nM) | IC50 (P388 [5]): 0.2 µM | IC50 (HT-29 [6]): 0.5 ng/mL (≈ 0.669 nM) | IC50 (SK-MEL-28): 5 ng/mL (≈ 6.69 nM)

CC(C)[C@]12SS[C@]3(C(=O)N1C)[C@@H](O)C1(C45c6ccccc6N[C@H]4N4C(=O)[C@@]6(CO)SSS[C@]4(C(=O)N6C)[C@H]5O)c4ccccc4N[C@@H]1N3C2=O (stereo partly drawn)
EC50 (P388 [1]): 2.4 ng/mL (≈ 3.1 nM)

CC(C)[C@]12SSS[C@]3(C(=O)N1C)[C@@H](O)C1(C45c6ccccc6N[C@H]4N4C(=O)[C@@]6(CO)SSSS[C@]4(C(=O)N6C)[C@H]5O)c4ccccc4N[C@@H]1N3C2=O (stereo partly drawn)
EC50 (P388 [2]): 0.0046 µg/mL (≈ 5.5 nM)

CO[C@@]12C(=O)N(C)[C@@H](CO)C(=O)N1[C@@H]1Nc3ccccc3C1(C13c4ccccc4N[C@@H]1N1C(=O)[C@@]4(C(C)C)SSSS[C@]1(C(=O)N4C)[C@H]3O)[C@@H]2O (stereo partly drawn)
EC50 (P388 [2]): 1.05 µg/mL (≈ 1360 nM)

CO[C@@]12C(=O)N(C)[C@@H](CO)C(=O)N1[C@@H]1Nc3ccccc3C1(C13c4ccccc4N[C@@H]1N1C(=O)[C@@]4(C(C)C)SS[C@]1(C(=O)N4C)[C@H]3O)[C@@H]2O (stereo partly drawn)
EC50 (P388 [2]): 1.4 µg/mL (≈ 1980 nM)
